According to patent US8883963B2 (Cadila Healthcare Limited, priority 2007, dated 2014):
Starred links: 1 amine or outer side, 2 acyl side, 3 side chain; linkers in the order of their positions; H or OH if unused. Non-standard residues stand in square brackets, D forms with d. Residues, ends and D or L forms follow the SMILES beside them. ξ: configuration not given here. *: point of attachment. X3 = CCc1cc(OC)ccc1-c1ccc(CC(N*)C(=S)NC(CCCc2ccccc2)C(N)=O)cc1; Leu(5,5,5,5',5',5'-F6) = N[C@@H](CC(C(F)(F)F)C(F)(F)F)C(=O)O; X4 = CCc1cc(OC)ccc1-c1ccc(CC(CNC(CCCc2ccccc2F)C(N)=O)N*)cc1; ξBip(2'-Et-4'-OMe) = CCc1cc(OC)ccc1-c1ccc(CC(N)C(=O)O)cc1; X1 = O=C(C(CCCc1ccc(C(F)(F)F)cc1F)N[*:1])[*:2]; ξαMePhe(2-F) = CC(N)(Cc1ccccc1F)C(=O)O; X2 = O=C(C(CCCc1ccccc1Cl)N[*:1])[*:2]; aThr = C[C@H](O)[C@H](N)C(=O)O; Ac3c = NC1(C(=O)O)CC1; Aib = CC(C)(N)C(=O)O

Columns and labels:
[1] = Stability in human plasma; assay type: in vitro ADME; settings: 2 μM peptidomimetic, pooled human plasma, 37° C.; for half-life at 2 μM: pH 7.8, read-out: half-life (t1/2) when incubated with human plasma
Method: (§1) Reactions were terminated by the addition of TFA/H2O (15 mL, 10% (v/v)). […] The column was equilibrated with TFA/H20, at a flow rate of 1 mL/min.

[2] = Stability in simulated intestinal fluid; assay type: in vitro ADME; settings: 2 μM peptidomimetic, simulated intestinal fluid pH 7.5, 37° C.; for half-life at 2 μM: read-out: half-life (t1/2) when incubated with simulated intestinal fluid
Method: as §1

DPP IV = DPP IV (Homo sapiens, UniProt P27487); assay: Stability against DPP IV enzyme; assay type: in vitro ADME; settings: 37° C.; for % degradation of peptidomimetics in 24 h when incubated with DPP-IV enzyme: 2 μM peptidomimetic; for half-life at 2 μM: DPP IV enzyme, pH 7.8, 2 μM peptidomimetic, read-out: half-life (t1/2) when incubated with DPP-IV enzyme
Method: as §1

[3] = Stability in liver microsomes; assay type: in vitro ADME; settings: 2 μM peptidomimetic, human liver microsomes, 37° C.; for half-life at 2 μM: pH 7.8, read-out: half-life (t1/2) when incubated with liver microsomes
Method: as §1

[4] = Stability in simulated gastric fluid; assay type: in vitro ADME; settings: 2 μM peptidomimetic, simulated gastric fluid pH 1.5, 37° C.; for half-life at 2 μM: read-out: half-life (t1/2) when incubated with simulated gastric fluid
Method: as §1

human glucagon receptor = target: T1, human glucagon receptor (Homo sapiens, UniProt P47871); assay: In vitro human glucagon antagonist activity (inhibition of cAMP production) in CHO/human glucagon R cells; assay type: cell-based; settings: with saturated concentration of glucagon peptide
T1 construct: The full-length cDNA was cloned in pcDNA3.1 (Invitrogen); expressed in transfected cells
T1 sequence (P47871 26-477): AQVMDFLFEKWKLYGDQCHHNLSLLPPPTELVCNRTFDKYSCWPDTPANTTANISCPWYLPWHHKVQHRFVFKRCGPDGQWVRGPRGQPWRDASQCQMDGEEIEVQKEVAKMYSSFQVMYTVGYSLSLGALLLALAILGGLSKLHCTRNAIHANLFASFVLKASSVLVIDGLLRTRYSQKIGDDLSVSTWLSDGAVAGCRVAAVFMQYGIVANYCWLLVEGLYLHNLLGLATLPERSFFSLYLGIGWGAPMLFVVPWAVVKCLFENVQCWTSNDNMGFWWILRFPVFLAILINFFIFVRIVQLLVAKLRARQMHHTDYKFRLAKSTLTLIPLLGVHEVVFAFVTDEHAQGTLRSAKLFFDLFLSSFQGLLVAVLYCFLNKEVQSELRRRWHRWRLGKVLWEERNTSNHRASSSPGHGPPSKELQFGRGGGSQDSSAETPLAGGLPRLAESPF

DPP IV, sequence (P27487 whole entry, species assumed): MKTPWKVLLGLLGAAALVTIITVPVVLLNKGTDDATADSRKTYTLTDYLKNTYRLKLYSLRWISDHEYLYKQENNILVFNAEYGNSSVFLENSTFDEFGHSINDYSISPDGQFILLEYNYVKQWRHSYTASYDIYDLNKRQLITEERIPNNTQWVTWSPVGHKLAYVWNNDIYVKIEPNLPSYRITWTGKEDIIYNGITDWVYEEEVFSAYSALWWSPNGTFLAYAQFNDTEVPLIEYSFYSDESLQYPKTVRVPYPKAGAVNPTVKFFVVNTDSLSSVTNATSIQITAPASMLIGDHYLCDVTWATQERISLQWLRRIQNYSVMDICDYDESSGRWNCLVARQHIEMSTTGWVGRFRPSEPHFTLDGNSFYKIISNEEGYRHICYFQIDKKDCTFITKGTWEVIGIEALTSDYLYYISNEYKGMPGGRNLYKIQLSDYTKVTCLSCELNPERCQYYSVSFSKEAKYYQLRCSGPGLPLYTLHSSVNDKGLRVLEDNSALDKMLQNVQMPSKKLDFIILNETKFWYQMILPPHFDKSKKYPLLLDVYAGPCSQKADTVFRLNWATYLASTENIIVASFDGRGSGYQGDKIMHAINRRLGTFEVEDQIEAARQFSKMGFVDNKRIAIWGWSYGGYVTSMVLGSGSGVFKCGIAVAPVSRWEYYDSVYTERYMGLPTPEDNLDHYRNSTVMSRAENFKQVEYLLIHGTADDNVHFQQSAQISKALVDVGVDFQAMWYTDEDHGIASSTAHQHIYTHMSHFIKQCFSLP

% degradation of peptidomimetics in 24 h when incubated with human plasma [1]	half-life at 2 μM [1]	% degradation of peptidomimetics in 24 h when incubated with simulated intestinal fluid [2]	% degradation of peptidomimetics in 24 h when incubated with DPP-IV enzyme (DPP IV)	half-life at 2 μM (DPP IV)	% degradation of peptidomimetics in 24 h when incubated with liver microsomes [3]	half-life at 2 μM [3]	% degradation of peptidomimetics in 24 h when incubated with simulated gastric fluid [4]	half-life (t1/2) when incubated with human plasma [1]	half-life at 2 μM [2]	half-life at 2 μM [4]	half-life (t1/2) when incubated with liver microsomes [3]	Compound	half-life (t1/2) when incubated with simulated intestinal fluid [2]	half-life (t1/2) when incubated with simulated gastric fluid [4]	Human Glucagon receptor antagonistic activity shown as inhibition of cAMP production of Glucagon peptide (human glucagon receptor; 1 nM test compound)	Human Glucagon receptor antagonistic activity shown as inhibition of cAMP production of Glucagon peptide (human glucagon receptor; 10 nM test compound)	Human Glucagon receptor antagonistic activity shown as inhibition of cAMP production of Glucagon peptide (human glucagon receptor; 100 nM test compound)	Human Glucagon receptor antagonistic activity shown as inhibition of cAMP production of Glucagon peptide (human glucagon receptor; 1 μM test compound)	Human Glucagon receptor antagonistic activity shown as inhibition of cAMP production of Glucagon peptide (human glucagon receptor; 10 μM test compound)
00%	> 24 h	00%	00%	> 24 h	84%	2 h	43%		> 24 h	4 h		CCc1cc(OC)ccc1-c1ccc(CC(CNC(CCCc2ccccc2)C(N)=O)NC[C@H](CC(=O)O)NC(=O)[C@H](CO)NC(=O)[C@@H](NC(=O)C(C)(Cc2ccccc2F)NC(=O)[C@@H](NC(=O)CNC(=O)[C@H](CCC(N)=O)NC(=O)C(C)(C)NC(=O)[C@@H](N)Cc2c[nH]cn2)[C@H](C)O)[C@H](C)O)cc1 (single isomer, unassigned) [compound 201]							
71%		100%	70%		100%	0.5 h	100%	(9) h	0.5 h	0.5 h		CCc1cc(OC)ccc1-c1ccc(CC(NC(=O)[C@H](CC(=O)O)NC(=O)[C@H](CO)NC(=O)[C@@H](NC(=O)C(C)(Cc2ccccc2F)NC(=O)[C@@H](NC(=O)CNC(=O)[C@H](CC(C(F)(F)F)C(F)(F)F)NC(=O)C(C)(C)NC(=O)[C@@H](N)Cc2c[nH]cn2)[C@H](C)O)[C@H](C)O)C(=O)NC(CCCc2ccccc2F)C(N)=O)cc1 (stereo partly drawn) [compound 229]							
78%		100%	76%		100%	0.5 h	100%	(9) h	0.5 h	0.5 h		CCc1cc(OC)ccc1-c1ccc(CC(CNC(CCCc2ccccc2F)C(N)=O)NC(=O)[C@H](CC(=O)O)NC(=O)[C@H](CO)NC(=O)[C@@H](NC(=O)C(C)(Cc2ccccc2F)NC(=O)[C@@H](NC(=O)CNC(=O)[C@H](CC(C(F)(F)F)C(F)(F)F)NC(=O)C(C)(C)NC(=O)[C@@H](N)Cc2c[nH]cn2)[C@H](C)O)[C@H](C)O)cc1 (stereo partly drawn) [compound 214] (H-H[Aib][Leu(5,5,5,5',5',5'-F6)]G[aThr][ξαMePhe(2-F)][aThr]SD-X4)							
78%	8 h	43%	76%	9 h	80%	1 h	14%					CCc1cc(OC)ccc1-c1ccc(CC(NC(=O)[C@H](CC(=O)O)NC(=O)[C@H](CO)NC(=O)[C@@H](NC(=O)[C@H](Cc2ccccc2)NC(=O)[C@@H](NC(=O)CNC(=O)[C@H](CCC(N)=O)NC(=O)C2(C)CCCN2C(=O)[C@@H](N)Cc2c[nH]cn2)[C@@H](C)O)[C@@H](C)O)C(=O)NC(CCCc2ccc(Cl)cc2C)C(N)=O)cc1 (single isomer, unassigned) [compound 12]	(6) h	(8) h					
00%	> 24 h	00%	00%	> 24 h	33%		00%		> 24 h	> 24 h	(5) h	CCc1cc(OC)ccc1-c1ccc(CC(NC(=O)[C@H](CC(=O)O)NC(=O)[C@H](CO)NC(=O)[C@@H](NC(=O)C(C)(Cc2ccccc2F)NC(=O)[C@@H](NC(=O)CNC(=O)[C@H](CC(C(F)(F)F)C(F)(F)F)NC(=O)C(C)(C)NC(=O)[C@@H](N)Cc2c[nH]cn2)[C@H](C)O)[C@H](C)O)C(=S)NC(CCCc2ccccc2)C(N)=O)cc1 (stereo partly drawn) [compound 219] (H-H[Aib][Leu(5,5,5,5',5',5'-F6)]G[aThr][ξαMePhe(2-F)][aThr]SD-X3)							
78%		100%	76%		100%	0.5 h	100%	(9) h	0.5 h	0.5 h		CCc1cc(OC)ccc1-c1ccc(CC(NC(=O)[C@H](CC(=O)O)NC(=O)[C@H](CO)NC(=O)[C@@H](NC(=O)[C@H](Cc2ccccc2)NC(=O)[C@@H](NC(=O)CNC(=O)[C@H](CCC(N)=O)NC(=O)C2(NC(=O)[C@@H](N)Cc3c[nH]cn3)CC2)[C@@H](C)O)[C@@H](C)O)C(=O)NC(CCCc2ccccc2Cl)C(N)=O)cc1 (stereo partly drawn) [compound 74] (H-H[Ac3c]QGTFTSD[ξBip(2'-Et-4'-OMe)][X2]-NH2)							
00%	> 24 h	00%	00%	> 24 h	32%		00%		> 24 h	> 24 h	(5) h	CCc1cc(OC)ccc1-c1ccc(CC(CNC(CCCc2ccccc2)C(N)=O)NC(=O)[C@H](CC(=O)O)NC(=O)[C@H](CO)NC(=O)[C@@H](NC(=O)C(C)(Cc2ccccc2F)NC(=O)[C@@H](NC(=O)CNC(=O)[C@H](CC(C(F)(F)F)C(F)(F)F)NC(=O)C(C)(C)NC(=O)[C@@H](N)Cc2c[nH]cn2)[C@H](C)O)[C@H](C)O)cc1 (stereo partly drawn) [compound 215]							

Compound	% degradation of peptidomimetics in 24 h when incubated with human plasma [1]	half-life at 2 μM [1]	% degradation of peptidomimetics in 24 h when incubated with simulated intestinal fluid [2]	% degradation of peptidomimetics in 24 h when incubated with DPP-IV enzyme (DPP IV)	half-life at 2 μM (DPP IV)	% degradation of peptidomimetics in 24 h when incubated with liver microsomes [3]	half-life at 2 μM [3]	% degradation of peptidomimetics in 24 h when incubated with simulated gastric fluid [4]	half-life (t1/2) when incubated with human plasma [1]	half-life at 2 μM [2]	half-life at 2 μM [4]	half-life (t1/2) when incubated with liver microsomes [3]	half-life (t1/2) when incubated with simulated intestinal fluid [2]	half-life (t1/2) when incubated with simulated gastric fluid [4]	Human Glucagon receptor antagonistic activity shown as inhibition of cAMP production of Glucagon peptide (human glucagon receptor; 1 nM test compound)	Human Glucagon receptor antagonistic activity shown as inhibition of cAMP production of Glucagon peptide (human glucagon receptor; 10 nM test compound)	Human Glucagon receptor antagonistic activity shown as inhibition of cAMP production of Glucagon peptide (human glucagon receptor; 100 nM test compound)	Human Glucagon receptor antagonistic activity shown as inhibition of cAMP production of Glucagon peptide (human glucagon receptor; 1 μM test compound)	Human Glucagon receptor antagonistic activity shown as inhibition of cAMP production of Glucagon peptide (human glucagon receptor; 10 μM test compound)
CCc1cc(OC)ccc1-c1ccc(CC(NC(=O)[C@H](CC(=O)O)NC(=O)[C@H](CO)NC(=O)[C@@H](NC(=O)[C@H](Cc2ccccc2)NC(=O)[C@@H](NC(=O)CNC(=O)[C@H](CCC(N)=O)NC(=O)C(C)(C)NC(=O)[C@@H](N)Cc2c[nH]cn2)[C@@H](C)O)[C@@H](C)O)C(=O)NC(CCCc2ccc(C(F)(F)F)cc2F)C(N)=O)cc1 (stereo partly drawn) [compound 65] (H-H[Aib]QGTFTSD[ξBip(2'-Et-4'-OMe)][X1]-NH2)	78%	8 h	43%	76%	9 h	80%	1 h	14%					(6) h	(8) h	10 ± 0.12 pmol/ml/μg prt	8 ± 0.02 pmol/ml/μg prt	6 ± 0.04 pmol/ml/μg prt	4 ± 0.05 pmol/ml/μg prt	1 ± 0.02 pmol/ml/μg prt
CCc1cc(OC)ccc1-c1ccc(CC(NC(=O)[C@H](CC(=O)O)NC(=O)[C@H](CO)NC(=O)[C@@H](NC(=O)C(C)(Cc2ccccc2F)NC(=O)[C@@H](NC(=O)CNC(=O)C(CCC#N)NC(=O)C(C)(C)NC(=O)[C@H](Cc2c[nH]cn2)NC(=O)OC)[C@@H](C)O)[C@@H](C)O)C(=O)NC(CCCc2ccccc2F)C(N)=O)cc1 (single isomer, unassigned) [compound 208]	78%		100%	76%		100%	0.5 h	100%	(9) h	0.5 h	0.5 h				5 ± 0.04 pmol/ml/μg prt	3 ± 0.15 pmol/ml/μg prt	1 ± 0.15 pmol/ml/μg prt	0 pmol/ml/μg prt	0 pmol/ml/μg prt
